Consider 19 molecules from patent US4874795A, “Composition for delivery of orally administered drugs and other substances” (priority 1986, dated 1989).

The conditions of data set [1]: cited from earlier work.
For data set [2] the following is noted: in vivo; cited from earlier work.
For data set [3] the following is noted: cited from earlier work; for biological activity: oral.
For data set [4] the following is noted: oral, cited from earlier work.
The conditions of data set [5]: cited from earlier work; for absorption in mixed micelle versus alone: mono-olein/sodium taurocholate.
Data set [6] can be described thus: Capacity and stability of the composition as a vitamin A delivery means. The class given is physicochemical. The following applies: for Viscosity: cold solution. On the procedure:
A composition that included oleic acid, monoglyceride and lysophosphatidyl choline as described in Example I was used for characterizing the capacity of the composition for vitamin A (also as described above). Vitamin A was added in batches to the composition as follows: 1st addition, 0.277 mmoles; 2nd, 0.241; 3rd, 0.276; 4th, 0.262 and 5th, 0.285. […] The millimole ratio of the composition was approximately 2:1:0.1 (oleic acid: mono-olein:lysophosphatidyl choline).
After each addition the approximate amount of time necessary for the complete dissolution of the added vitamin A was recorded, as was the extent of schlierin evident. The time needed to obtain a minimal schlieric effect was generally between 5 minutes and 60 minutes and inversely related to the amount of vitamin A added. After each addition and the achievement of a minimal schlieric effect, the solution was placed in an ice-bath in order to evaluate its stability. The relative viscosity of the cold solution was also recorded. […]

The conditions of data set [7]: cited from earlier work. This is another data set of the same source.
For data set [8] the following is noted: excess bile salts, cited from earlier work.
The conditions of data set [9]: rat, in vivo. How it is done:
Tritium labeled (^3 H) vitamin A ([…]; Hoffman LaRoche) was incorporated into a lipid formulation of the following composition: 56 mg. of oleic acid (NuCheck Prep, Inc.); 36 mg. of mono-olein (NuCheck Prep, Inc.) and 6 mg. of lysophosphatidyl choline derived from soy lecithin (A. E. Staley Mfg. Co.). This corresponds to an approximate molar ratio of oleic acid: mono-olein: lysophosphatidyl choline of 2:1:0.1. (The approximate molar percentages of the components were 64.5:32.3:3.2, respectively). The composition was administered to Sprague-Dawley rats (weighing 210-230 gm) by gavage.
Tritium-labeled vitamin A (7mg. or 0.25 millimoles) was administered to Sprague-Dawley rats (as above) in 99 mg. food grade, refined corn oil (A. E. Staley Mfg. Co.).
The concentration of vitamin A equivalents in the plasma was measured by obtaining duplicate 0.05 ml. blood samples from the orbital sinus at 0.5, 1, 2, 3, 4, 6, 8 and 24 hours after administration. The blood was collected in hematocrit tubes and centrifuged; the plasma was transferred into tared scintillation vials and weighed. The radioactivity was determined by liquid scintillation counting.

The mark [10] stands for this setting: 1st addition, total 0.277 mmoles.
The mark [11] stands for this setting: 2nd addition, total 0.518 mmoles.
[12] abbreviates: 3rd addition, total 0.794 mmoles.
Setting [13] is: 4th addition, total 1.056 mmoles.
[14] abbreviates: 5th addition, total 1.341 mmoles.

Like-named read-outs stand apart in the source and are kept apart here.

lysophosphatidyl choline: the “absorption of lysophosphatidyl choline” value in [1] (in vivo) is given as “rapidly absorbed intact”.

Regarding `CCCCCCCCCC(=O)O` [decanoic], the “absorbed fatty acid transported in the lymph” value in data set [2] is on record as 5-20%.

In the case of `CCCCCCCCCCCC(=O)O` [lauric], in data set [2], the “absorbed fatty acid transported in the lymph” value was 15-55%.

`CCCCCCCCCCCCCCCCCC(=O)O` [stearic]: in data set [2], the “absorbed fatty acid transported in the lymph” value was 85% and the “absorption of fatty acid” value was 30-45%.

`CCCCCCCCCCC(=O)O[C@H]1CC[C@H]2[C@@H]3CCC4=CC(=O)CC[C@]4(C)[C@H]3CC[C@]12C` [testosterone undecanoate]: the biological activity entry in [3] (peanut oil solution versus aqueous micro-crystalline suspension) is on record as “more biologically active”.

Regarding `COC1=C(OC)C(=O)C(C/C=C(\C)CC/C=C(\C)CC/C=C(\C)CC/C=C(\C)CC/C=C(\C)CC/C=C(\C)CC/C=C(\C)CC/C=C(\C)CC/C=C(\C)CCC=C(C)C)=C(C)C1=O` [ubidecarenone], the absorption of ubidecarenone in data set [4] (drug alone) is recorded as 2.3%; in [4] (in mixture of C12-18 fatty acids and monoglycerides) it was 8.3%.

Turning to heparin, in data set [5] (in vivo), the “absorption from large intestine relative to small intestine” value was “twice”; the “absorption without micelle formulation” value was “poorly absorbed”; the “concentration in mixed micelle for potentiation, large intestine relative to small intestine” value was “approximately one-fourth”; the “effect of mixed micelles on absorption” value is “promotes the absorption”.

For the molecule `CC1=C(/C=C/C(C)=C/C=C/C(C)=C/CO)C(C)(C)CCC1` [Vitamin A], the Schleirin entry is on record as “none” in data set [6] (setting [10]); “minimal” in data set [6] (setting [11]); “medium” in data set [6] (setting [12]); “medium” in data set [6] (setting [13]); “extensive” in data set [6] (setting [14]). Moreover, the “Temp. to attain a clear solution” value worked out at 20 °C in [6] (setting [10]); 20 °C in data set [6] (setting [11]); 37 °C in data set [6] (setting [12]); 37 °C in data set [6] (setting [13]); 46 °C in data set [6] (setting [14]). The “Time to attain a clear solution” value in data set [6] (1st addition, total 0.277 mmoles, 20° C.) worked out at 1 min; in data set [6] (2nd addition, total 0.518 mmoles, 20° C.), 1 min; in data set [6] (3rd addition, total 0.794 mmoles, 37° C.) it was 5 min; in [6] (4th addition, total 1.056 mmoles, 37° C.), 10 min; in data set [6] (5th addition, total 1.341 mmoles, 46° C.), 10 min. Also, the Viscosity entry in [6] (setting [10]) is on record as “normal”; in data set [6] (setting [11]), “normal”; in data set [6] (setting [12]), “thicker”; in [6] (setting [13]) it was “viscous”; in data set [6] (setting [14]), “very viscous”. Besides, in [6] (approximately 1 gm of the composition, after 5th addition), the “total vitamin A added (capacity of the composition)” value came to 1.341 mmol.

For the molecule `O=c1[nH]cc(F)c(=O)[nH]1` [5-fluorouracil], the “absorption in mixed micelle versus alone” value is “greater” in [5] (large intestine) and “little difference” in data set [5] (stomach or small intestine).

For the molecule `CC(=O)[C@H]1CC[C@H]2[C@@H]3CCC4=CC(=O)CC[C@]4(C)[C@H]3CC[C@]12C` [progesterone], the biological activity entry in [3] (in combination with cholesterol or its esters) is listed as “good sustained biological activity”.

For the molecule `COC1=CC(=O)C[C@@H](C)[C@]12Oc1c(Cl)c(OC)cc(OC)c1C2=O` [griseofulvin], the absorption result in [3] (co-administered with high fat content meal or in oil and water emulsion) is “enhanced”.

Consider gentamycin, for which the “absorption from rectum and large intestine” value in [5] (bile salt: mixed lipid micelle) is on record as “comparable”. Also, the “absorption via rectum and large intestine versus comparable dose administered duodenally” value in data set [5] (mixed lipid micelle, duodenal concentration even four times higher) is listed as “markedly greater”.

Regarding `[H]/N=C(/N)N[C@H]1[C@H](O)[C@@H](O)[C@H](O[C@@H]2O[C@@H](C)[C@](O)(C=O)[C@H]2O[C@@H]2O[C@@H](CO)[C@H](O)[C@@H](O)[C@@H]2NC)[C@@H](N/C(N)=N\[H])[C@@H]1O` [streptomycin], in [5] (in vivo), the “absorption from rectum and large intestine” value is “comparable”; the “absorption via rectum and large intestine versus comparable dose administered duodenally” value is listed as “markedly greater”; the “absorption without micelle formulation” value was “poorly absorbed”.

As to `CCCCCCCC/C=C\CCCCCCCC(=O)OC[C@@H](O)COP(=O)([O-])OCC[N+](C)(C)C` [oleoyl lysophosphatidyl choline], the “increase in triglyceride and phospholipid in lymphatic transported fat” value in [1] (versus lysophosphatidyl choline from mainly saturated phosphatidyl choline) is listed as 100%.

For `CCCCCCCCCCCCCC(=O)O` [myristic], in data set [2], the “absorbed fatty acid transported in the lymph” value is listed as 68-80% and the “absorption of fatty acid” value is 80-90%.

As to `C[C@]12CC[C@@H]3c4ccc(O)cc4CC[C@H]3[C@@H]1CC[C@@H]2O` [estradiol], the “initial concentrations in plasma of estradiol relative to lymph” value in data set [7] (2:1:2 composition, excess bile salts) was “greater than those in lymph”. For the same molecule, in [7] (2:1:2 fatty acids:monoglycerides:bile salts), the “estradiol co-absorbed with lipid and entering circulation via thoracic lymph” value is 25-50%. Besides, the “estradiol remaining in 2:1:2 micellar composition” value in data set [8] (with phosphatidyl choline) is 70-75%. Also, in [8] (without phosphatidyl choline), the “estradiol remaining associated with 2:1:2 micellar composition” value is reported as “about 60%”.

For `CCCCCCCCCCCCCCCC(=O)O` [palmitic], in data set [2], the “absorbed fatty acid transported in the lymph” value is 85% and the “absorption of fatty acid” value was 65-70%.

As for Corn Oil, the “absorption of vitamin A” value in data set [9] was “complete”. Further, the “vitamin A absorbed” value in data set [9] (po, 180 min) came out at 77%.

On to `CCCCC/C=C\C/C=C\CCCCCCCC(=O)O` [linoleic], for which the “absorption into lymph compared with saturated fatty acids” value in data set [2] is “more rapidly and to a greater extent”.
